This data set in a line: Dynamic vapor sorption (DVS) hygroscopicity. It counts as physicochemical. On the procedure: Dynamic vapor sorption (DVS) was measured using DVS advantage (Surface Measurement Systems Ltd). The samples were tested under isotherm (25° C.) at a targeted RH of 0 to 95% full cycle in step mode. For an isotherm test, the chamber temperature is maintained by a water bath at constant 25.0±1.0° C. The relative humidity in the sample chamber is generated by combining different flows of wet and dry nitrogen with variable flow rates. The analysis was performed in 10% RH increments. Sampling rate is 1 sec save data rate is 20 sec. The dm/dt (%) value was set at 0.001 with a dm/dt window of 5 min., a minimum stability duration time of 10 min, and a maximum stage time of 180 min. The sample's equilibrium weight corresponding to each RH was recorded. A sorption isotherm is obtained by plotting equilibrium moisture content versus RH.

Turning to `Cl.Cl.O=C1CC[C@H](N2C(=O)c3cccc(NCc4ccc(CN5CC(N6CCOCC6)C5)cc4F)c3C2=O)C(=O)N1`, the “hygroscopicity (DVS)” value (below 90% RH) is “highly hygroscopic”. Further, the “moisture gain (DVS)” value (from 80% RH to 90% RH) is around 6.7%. For the setting “from 90 to 80% RH”, the “water content released during desorption (DVS)” value was around 7.0%. Besides, the “moisture picked up (DVS)” value (from dry up to 80% RH) is listed as around 8.0 % wt.

The values above are taken from patent US11578056B2, “Solid forms comprising (S)-2-(2,6-dioxopiperidin-3-yl)-4-((2-fluoro-4-((3-morpholinoazetidin-1-yl)methyl)benzyl)amino)isoindoline-1,3-dione and salts thereof, and compositions comprising and methods of using the same” (Celgene Corporation, priority 2019, dated 2023).
